Source: patent US20100119454A1, “Use of the conserved Drosophila NPFR1 system for uncovering interacting genes and pathways important in nociception and stress response” (priority 2008, published 2010)

System: Drosophila adult flies
Assay: Two-choice preference test of adult flies (BITC)
Type: in vivo, Drosophila melanogaster
Settings: 0.4 mM BITC, 2-day old control flies
Experimental: The two-choice preference test was based on a published procedure with some modifications (Al-Anzi et al., 2006), which is hereby incorporated by reference herein in its entirety. 2-day-old males withheld from food for 24 hr were presented with a 48-well plate containing two-colored food media in the alternating well rows. They contain 1% agar/10% fructose with 0.4 mM benzyl-isothiocyanate (BITC) in 75% ethanol or ethanol only. In each assay, 90-100 flies per line were tested in the dark. A preference index was defined as the fraction of […] choosing the BITC medium, minus the fraction of […] choosing the BITC-free medium. […] At least three trials were done for each line.

S=C=NCc1ccccc1 [BITC, benzyl-isothiocyanate]
food choice of adult flies: mostly avoided
